Source: ChEMBL document CHEMBL1147934, “Discovery of a novel small molecule binding site of human survivin” (Bioorg Med Chem Lett, 2007)
Values after ≈ are worked out from the molar mass of the structure shown.

Columns and labels:
[1] = Solubility by nephelometry; type: physicochemical
[2] = Solubility at pH 7.4 by shake flask method; type: physicochemical; details: buffer
[3] = molecular target: Baculoviral IAP repeat-containing protein 5 (Homo sapiens, UniProt O15392); assay: Binding affinity to human survivin expressed in Escherichia coli BL21 cells after 30 mins
Sequence of Baculoviral IAP repeat-containing protein 5 (O15392 whole entry): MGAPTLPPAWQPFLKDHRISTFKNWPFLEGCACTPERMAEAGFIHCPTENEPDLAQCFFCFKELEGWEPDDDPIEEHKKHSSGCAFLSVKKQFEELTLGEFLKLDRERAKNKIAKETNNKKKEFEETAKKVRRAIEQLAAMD

Row | Structure (SMILES) | solubility kinetic [1] [µM] | solubility thermodynamic [2] [µM] | Kd [3] [µM]
1 | CC(=O)N1CCC(C(=O)N(C)Cc2cc(Cl)cc(-c3cc(-c4cc(C(F)(F)F)ccc4Cl)c(C#N)c(=O)[nH]3)c2O)CC1 | > 32 | 300 (≈ 186 µg/mL) | 
2 | N#Cc1c(-c2ccccc2)cc(-c2ccccc2O)[nH]c1=O |  |  | 75
3 | N#Cc1c(-c2cc(-c3ccccc3)ccc2Cl)cc(-c2cc(Br)ccc2O)[nH]c1=O |  |  | > 4.3
4 | CN(Cc1cc(Cl)cc(-c2cc(-c3cc(C(F)(F)F)ccc3Cl)c(C#N)c(=O)[nH]2)c1O)C(=O)C1CCN(C(=O)C2CCCCC2)CC1 | > 32 |  | 
5 | CCc1oc2ccccc2c1C(=O)c1cc(I)c(O)c(I)c1 [BENZIODARONE] |  |  | 8
6 | CC1(C)NC(=O)N(C/C(COc2ccc(-c3ccc(OC(F)(F)F)cc3)cc2)=N/O)C1=O |  |  | < 10
7 | COCC(=O)N1CCC(C(=O)N(C)Cc2cc(Cl)cc(-c3cc(-c4cc(C(F)(F)F)ccc4Cl)c(C#N)c(=O)[nH]3)c2O)CC1 | > 32 | 138 (≈ 89.9 µg/mL) | 
8 | Cc1ccnc(NC(=O)C2CCNCC2)c1 |  |  | 130
9 | CCCC(=O)N1CCC(C(=O)N(C)Cc2cc(Cl)cc(-c3cc(-c4cc(C(F)(F)F)ccc4Cl)c(C#N)c(=O)[nH]3)c2O)CC1 | > 32 |  | 
10 | Clc1cccc(Nc2ccc3ccccc3c2)c1 |  |  | < 10
11 | N#Cc1c(-c2ccccc2)cc(-c2cc(Br)ccc2O)[nH]c1=O |  |  | 5
